Reference: US20140120083A1, “TREATMENT OF CANCERS USING PI3 KINASE ISOFORM MODULATORS” (INFINITY PHARMACEUTICALS, INC., priority 2012, published 2014)
pIC50: −log10 of the molar value.

Tests used:
Format in all cases: biochemical
PI3K γ = target: T1, PI3K γ (Homo sapiens, UniProt P48736); experiment: In vitro IC50, PI3K γ
T1 construct: purchased Sigma
Text: (§1) An exemplary system is PI 3-Kinase (human) HTRF™ Assay from Upstate.

PI3K α = target: T2, PI3K α (Homo sapiens, UniProt P42336); experiment: In vitro IC50, PI3K α
T2 construct: purchased Upstate
Text: as §1

PI3K β = PI3K β (Homo sapiens, UniProt P42338); experiment: In vitro IC50, PI3K β
Text: as §1

PI3K δ = PI3K δ (Homo sapiens, UniProt O00329); experiment: In vitro IC50, PI3K δ; design: purchased Upstate
Text: as §1

T2 sequence (P42336 whole entry): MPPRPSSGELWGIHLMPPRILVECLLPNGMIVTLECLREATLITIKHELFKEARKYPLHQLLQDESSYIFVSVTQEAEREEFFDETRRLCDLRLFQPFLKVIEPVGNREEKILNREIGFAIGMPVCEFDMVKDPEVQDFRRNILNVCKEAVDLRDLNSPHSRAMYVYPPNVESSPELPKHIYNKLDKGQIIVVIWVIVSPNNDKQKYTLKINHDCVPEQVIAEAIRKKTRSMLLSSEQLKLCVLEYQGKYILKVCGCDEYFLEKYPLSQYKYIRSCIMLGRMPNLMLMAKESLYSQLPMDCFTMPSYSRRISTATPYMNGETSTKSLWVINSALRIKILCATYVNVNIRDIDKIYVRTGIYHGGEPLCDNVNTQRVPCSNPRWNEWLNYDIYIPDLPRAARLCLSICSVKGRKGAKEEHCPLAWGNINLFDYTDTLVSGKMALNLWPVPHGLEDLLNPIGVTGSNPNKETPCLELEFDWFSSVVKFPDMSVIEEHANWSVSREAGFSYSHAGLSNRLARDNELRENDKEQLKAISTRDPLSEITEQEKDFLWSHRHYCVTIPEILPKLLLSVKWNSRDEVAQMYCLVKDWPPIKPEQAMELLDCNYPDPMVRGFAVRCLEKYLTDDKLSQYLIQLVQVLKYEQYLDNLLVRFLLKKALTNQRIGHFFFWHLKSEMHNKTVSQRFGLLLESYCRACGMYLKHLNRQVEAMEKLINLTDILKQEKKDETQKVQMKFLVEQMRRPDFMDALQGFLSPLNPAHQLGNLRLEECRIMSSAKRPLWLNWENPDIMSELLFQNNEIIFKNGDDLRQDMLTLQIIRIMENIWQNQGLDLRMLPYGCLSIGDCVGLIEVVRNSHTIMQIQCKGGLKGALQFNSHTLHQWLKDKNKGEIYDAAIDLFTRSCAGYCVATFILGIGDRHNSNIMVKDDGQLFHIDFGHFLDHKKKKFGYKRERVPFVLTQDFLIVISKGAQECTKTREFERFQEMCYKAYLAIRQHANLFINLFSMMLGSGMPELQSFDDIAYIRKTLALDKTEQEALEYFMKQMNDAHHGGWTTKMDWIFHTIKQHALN
T2 sequence (P27986 whole entry partner): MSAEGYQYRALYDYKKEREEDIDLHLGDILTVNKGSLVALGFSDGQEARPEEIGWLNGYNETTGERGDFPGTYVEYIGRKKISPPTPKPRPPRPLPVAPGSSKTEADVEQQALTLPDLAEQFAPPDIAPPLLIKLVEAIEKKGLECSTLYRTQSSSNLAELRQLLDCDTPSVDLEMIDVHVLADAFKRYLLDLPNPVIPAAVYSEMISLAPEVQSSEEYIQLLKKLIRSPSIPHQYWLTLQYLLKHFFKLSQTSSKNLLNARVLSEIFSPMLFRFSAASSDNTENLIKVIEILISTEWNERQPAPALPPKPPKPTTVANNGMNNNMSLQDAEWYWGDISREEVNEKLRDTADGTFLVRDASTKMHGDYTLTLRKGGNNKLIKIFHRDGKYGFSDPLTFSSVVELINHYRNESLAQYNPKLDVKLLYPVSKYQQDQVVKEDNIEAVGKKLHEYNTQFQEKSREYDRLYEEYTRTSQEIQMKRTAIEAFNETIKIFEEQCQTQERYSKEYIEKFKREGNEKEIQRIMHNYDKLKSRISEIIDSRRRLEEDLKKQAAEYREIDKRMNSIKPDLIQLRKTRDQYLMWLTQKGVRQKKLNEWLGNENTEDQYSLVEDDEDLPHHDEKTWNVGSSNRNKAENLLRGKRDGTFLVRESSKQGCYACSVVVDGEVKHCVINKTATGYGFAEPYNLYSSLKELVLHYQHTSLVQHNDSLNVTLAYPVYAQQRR
PI3K β, sequence (P42338 whole entry): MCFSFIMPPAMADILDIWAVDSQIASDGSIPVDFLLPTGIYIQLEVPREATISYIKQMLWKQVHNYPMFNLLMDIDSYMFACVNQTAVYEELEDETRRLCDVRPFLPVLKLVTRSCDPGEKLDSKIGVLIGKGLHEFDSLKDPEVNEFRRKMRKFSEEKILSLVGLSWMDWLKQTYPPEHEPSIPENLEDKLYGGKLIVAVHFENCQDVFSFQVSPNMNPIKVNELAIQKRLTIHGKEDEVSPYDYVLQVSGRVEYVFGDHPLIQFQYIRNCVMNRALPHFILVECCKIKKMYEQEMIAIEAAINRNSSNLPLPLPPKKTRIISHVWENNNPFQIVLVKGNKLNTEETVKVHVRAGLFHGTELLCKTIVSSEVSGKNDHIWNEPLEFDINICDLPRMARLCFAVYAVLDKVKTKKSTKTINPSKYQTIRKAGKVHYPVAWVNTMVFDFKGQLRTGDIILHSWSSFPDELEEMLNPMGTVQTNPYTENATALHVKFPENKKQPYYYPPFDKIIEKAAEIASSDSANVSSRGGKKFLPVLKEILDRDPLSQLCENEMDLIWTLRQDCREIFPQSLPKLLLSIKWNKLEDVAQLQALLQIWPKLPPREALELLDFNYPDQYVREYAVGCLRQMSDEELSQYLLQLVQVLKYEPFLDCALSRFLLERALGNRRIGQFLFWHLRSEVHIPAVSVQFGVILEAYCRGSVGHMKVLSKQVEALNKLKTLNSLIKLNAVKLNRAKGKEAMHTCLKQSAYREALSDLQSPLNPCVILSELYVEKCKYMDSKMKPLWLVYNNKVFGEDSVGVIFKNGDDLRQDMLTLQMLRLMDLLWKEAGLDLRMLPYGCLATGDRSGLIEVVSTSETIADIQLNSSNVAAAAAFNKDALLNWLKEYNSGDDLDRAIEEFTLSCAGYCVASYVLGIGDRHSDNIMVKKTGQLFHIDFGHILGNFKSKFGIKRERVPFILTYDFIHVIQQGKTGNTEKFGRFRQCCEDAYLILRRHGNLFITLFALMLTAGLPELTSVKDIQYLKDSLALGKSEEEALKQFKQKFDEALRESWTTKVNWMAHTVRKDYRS
PI3K δ, sequence (O00329 whole entry): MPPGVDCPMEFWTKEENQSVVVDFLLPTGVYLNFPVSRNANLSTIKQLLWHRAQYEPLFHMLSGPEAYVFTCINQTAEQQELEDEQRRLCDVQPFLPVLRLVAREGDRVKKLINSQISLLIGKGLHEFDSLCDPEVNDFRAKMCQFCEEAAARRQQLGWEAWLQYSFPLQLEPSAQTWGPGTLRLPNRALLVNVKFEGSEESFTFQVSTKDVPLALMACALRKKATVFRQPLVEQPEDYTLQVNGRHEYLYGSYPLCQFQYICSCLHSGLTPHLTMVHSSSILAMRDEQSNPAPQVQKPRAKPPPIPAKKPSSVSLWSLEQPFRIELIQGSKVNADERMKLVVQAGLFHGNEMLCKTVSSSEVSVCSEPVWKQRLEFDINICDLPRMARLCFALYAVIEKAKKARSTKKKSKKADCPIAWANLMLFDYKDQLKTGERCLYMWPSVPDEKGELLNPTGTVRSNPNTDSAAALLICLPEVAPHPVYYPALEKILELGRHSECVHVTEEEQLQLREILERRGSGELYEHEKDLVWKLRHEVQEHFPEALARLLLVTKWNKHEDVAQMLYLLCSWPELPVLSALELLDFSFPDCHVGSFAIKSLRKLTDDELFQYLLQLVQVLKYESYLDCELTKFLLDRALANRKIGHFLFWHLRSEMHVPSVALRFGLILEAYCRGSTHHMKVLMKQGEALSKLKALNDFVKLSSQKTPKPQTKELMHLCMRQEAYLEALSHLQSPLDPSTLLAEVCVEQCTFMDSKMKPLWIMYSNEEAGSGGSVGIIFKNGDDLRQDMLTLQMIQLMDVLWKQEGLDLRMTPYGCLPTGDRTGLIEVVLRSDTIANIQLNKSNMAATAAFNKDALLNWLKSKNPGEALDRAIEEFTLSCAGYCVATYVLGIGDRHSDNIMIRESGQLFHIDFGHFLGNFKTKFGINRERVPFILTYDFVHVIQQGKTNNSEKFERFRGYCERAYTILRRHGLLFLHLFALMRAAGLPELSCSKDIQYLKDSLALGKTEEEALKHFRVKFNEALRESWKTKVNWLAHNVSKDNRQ
PI3K δ, sequence (P27986 whole entry partner): as the sequence (P27986 whole entry partner) above
T1 sequence (P48736 whole entry): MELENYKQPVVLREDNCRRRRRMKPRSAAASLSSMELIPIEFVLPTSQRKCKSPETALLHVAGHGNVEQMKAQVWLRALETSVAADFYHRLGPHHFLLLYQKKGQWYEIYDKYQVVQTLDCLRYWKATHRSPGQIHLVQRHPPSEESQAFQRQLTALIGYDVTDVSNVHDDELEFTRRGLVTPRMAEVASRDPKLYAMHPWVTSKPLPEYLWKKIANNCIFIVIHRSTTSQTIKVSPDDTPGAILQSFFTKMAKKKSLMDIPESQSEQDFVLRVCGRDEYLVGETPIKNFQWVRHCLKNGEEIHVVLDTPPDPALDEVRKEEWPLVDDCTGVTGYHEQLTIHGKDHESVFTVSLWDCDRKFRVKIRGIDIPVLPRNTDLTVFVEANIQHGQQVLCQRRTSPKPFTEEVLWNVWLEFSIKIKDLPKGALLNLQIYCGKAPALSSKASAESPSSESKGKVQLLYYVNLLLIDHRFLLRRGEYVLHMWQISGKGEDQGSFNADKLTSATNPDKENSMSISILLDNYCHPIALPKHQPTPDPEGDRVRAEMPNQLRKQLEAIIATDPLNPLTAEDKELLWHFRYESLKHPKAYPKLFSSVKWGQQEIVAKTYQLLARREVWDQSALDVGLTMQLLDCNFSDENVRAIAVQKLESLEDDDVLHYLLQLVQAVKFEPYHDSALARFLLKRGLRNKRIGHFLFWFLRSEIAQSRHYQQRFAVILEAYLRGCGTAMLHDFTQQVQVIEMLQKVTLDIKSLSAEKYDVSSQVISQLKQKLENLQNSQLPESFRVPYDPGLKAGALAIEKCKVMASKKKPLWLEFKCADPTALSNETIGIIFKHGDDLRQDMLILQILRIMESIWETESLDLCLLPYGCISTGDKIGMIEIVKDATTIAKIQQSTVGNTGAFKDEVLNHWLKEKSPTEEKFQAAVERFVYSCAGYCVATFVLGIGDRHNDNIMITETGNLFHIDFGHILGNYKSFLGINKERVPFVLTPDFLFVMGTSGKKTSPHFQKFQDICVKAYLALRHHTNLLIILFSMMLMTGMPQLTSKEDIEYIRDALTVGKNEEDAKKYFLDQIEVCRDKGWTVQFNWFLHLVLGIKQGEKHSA

Cc1ccccc1-n1c(Cn2nc(CCC(N)=O)c3c(N)ncnc32)cc2cccc(C)c2c1=O [Compound 175]
pIC50 (PI3K γ): > 5.00 | pIC50 (PI3K α): < 5.00 | pIC50 (PI3K β): < 5.00 | pIC50 (PI3K δ): > 6.00

CC(=O)Nc1nc2cc(-c3nn(Cc4cc5cccc(C)c5c(=O)n4-c4ccccc4C)c4ncnc(N)c34)ccc2s1 [Compound 274]
pIC50 (PI3K γ): > 5.00 | pIC50 (PI3K α): < 5.00 | pIC50 (PI3K β): > 5.00 | pIC50 (PI3K δ): > 6.00

Cc1cccc2cc(Cn3nc(-c4cn[nH]c4)c4c(N)ncnc43)n(-c3cccc(F)c3)c(=O)c12 [Compound 166]
pIC50 (PI3K γ): > 6.00 | pIC50 (PI3K α): < 5.00 | pIC50 (PI3K β): < 5.00 | pIC50 (PI3K δ): > 7.00

Cc1ccccc1-n1c(Cn2nc(-c3ccc4sc(N)nc4c3)c3c(N)ncnc32)cc2cccc(C)c2c1=O [Compound 276]
pIC50 (PI3K γ): > 7.00 | pIC50 (PI3K α): > 6.00 | pIC50 (PI3K β): > 6.00 | pIC50 (PI3K δ): > 7.00

Cc1cccc2cc(Cn3nc(-c4cccc(O)c4)c4c(N)ncnc43)n(-c3ccccc3Cl)c(=O)c12 [Compound 96]
pIC50 (PI3K γ): > 7.00 | pIC50 (PI3K α): < 5.00 | pIC50 (PI3K β): > 5.00 | pIC50 (PI3K δ): > 7.00

Cc1ccccc1-n1c(Cn2nc(-c3nn[nH]n3)c3c(N)ncnc32)cc2cccc(C)c2c1=O [Compound 207]
pIC50 (PI3K γ): > 7.00 | pIC50 (PI3K α): > 5.00 | pIC50 (PI3K β): > 5.00 | pIC50 (PI3K δ): > 7.00

Cc1cccc2cc([C@H](C)Nc3nc(N)ncc3C(F)(F)F)n(-c3ccccc3)c(=O)c12 [Compound 324]
pIC50 (PI3K γ): > 7.00 | pIC50 (PI3K α): < 5.00 | pIC50 (PI3K β): > 5.00 | pIC50 (PI3K δ): > 7.00

Cc1cccc2cc(Cn3nc(-c4cccc(O)c4)c4c(N)ncnc43)n(-c3ccccc3O)c(=O)c12 [Compound 81]
pIC50 (PI3K γ): > 7.00 | pIC50 (PI3K α): < 5.00 | pIC50 (PI3K β): > 5.00 | pIC50 (PI3K δ): > 7.00

Cc1cccc2cc([C@H](C)Nc3ncnc4[nH]c(Cl)nc34)n(C3CC3)c(=O)c12 [Compound 280]
pIC50 (PI3K γ): < 5.00 | pIC50 (PI3K α): < 5.00 | pIC50 (PI3K β): < 5.00 | pIC50 (PI3K δ): < 5.00

Cc1cccnc1-n1c(Cn2nc(-c3cccc(O)c3)c3c(N)ncnc32)cc2cccc(C)c2c1=O [Compound 73]
pIC50 (PI3K γ): > 6.00 | pIC50 (PI3K α): < 5.00 | pIC50 (PI3K β): < 5.00 | pIC50 (PI3K δ): > 7.00

COc1ccccc1-n1c(Cn2nc(C#C[C@@H](C)O)c3c(N)ncnc32)cc2cccc(C)c2c1=O [Compound 80]
pIC50 (PI3K γ): > 6.00 | pIC50 (PI3K α): < 5.00 | pIC50 (PI3K β): < 5.00 | pIC50 (PI3K δ): > 7.00

Cc1cccc2cc(C(C)Nc3ncnc4[nH]cnc34)n(-c3ccc(F)cc3)c(=O)c12 (stereo not shown) [Compound 213]
pIC50 (PI3K γ): > 7.00 | pIC50 (PI3K α): > 5.00 | pIC50 (PI3K β): > 6.00 | pIC50 (PI3K δ): > 7.00

Cc1cccc2cc(Cn3nc(-c4ccc(F)c(O)c4)c4c(N)ncnc43)n(C3CCCC3)c(=O)c12 [Compound 64]
pIC50 (PI3K γ): > 7.00 | pIC50 (PI3K α): < 5.00 | pIC50 (PI3K β): < 5.00 | pIC50 (PI3K δ): > 7.00

Cc1ccccc1-n1c(Cn2nc(-c3ccc(F)c(O)c3)c3c(N)ncnc32)cc2cccc(C)c2c1=O [Compound 12]
pIC50 (PI3K γ): > 7.00 | pIC50 (PI3K α): < 5.00 | pIC50 (PI3K β): > 5.00 | pIC50 (PI3K δ): > 7.00

Cc1ccccc1-n1c(Cn2nc(-c3ccc(F)c(O)c3)c3c(N)ncnc32)cc2ccccc2c1=O [Compound 54]
pIC50 (PI3K γ): > 7.00 | pIC50 (PI3K α): < 5.00 | pIC50 (PI3K β): < 5.00 | pIC50 (PI3K δ): > 7.00

COc1ccc(-c2nn(Cc3cc4cccc(C)c4c(=O)n3-c3ccccc3C)c3ncnc(N)c23)cc1OC [Compound 44]
pIC50 (PI3K γ): > 7.00 | pIC50 (PI3K α): < 5.00 | pIC50 (PI3K β): < 5.00 | pIC50 (PI3K δ): > 6.00

Cc1cccc2cc(Cn3nc(-c4ccc(Cl)c(O)c4)c4c(N)ncnc43)n(C3CCCC3)c(=O)c12 [Compound 71]
pIC50 (PI3K γ): > 6.00 | pIC50 (PI3K α): < 5.00 | pIC50 (PI3K β): > 5.00 | pIC50 (PI3K δ): > 6.00

Cc1ccccc1-n1c(Cn2nc(-c3cn[nH]c3)c3c(N)ncnc32)cc2cccc(C)c2c1=O [Compound 160]
pIC50 (PI3K γ): > 7.00 | pIC50 (PI3K α): < 5.00 | pIC50 (PI3K β): > 5.00 | pIC50 (PI3K δ): > 7.00

Cc1ccccc1-n1c(Cn2nc(-c3ccc4nc(N)ccc4c3)c3c(N)ncnc32)cc2cccc(C)c2c1=O [Compound 149]
pIC50 (PI3K γ): > 7.00 | pIC50 (PI3K α): > 6.00 | pIC50 (PI3K β): > 5.00 | pIC50 (PI3K δ): > 7.00

Cc1cccc2cc([C@H](C)Nc3ncnc4[nH]ccc34)n(C3CC3)c(=O)c12 [Compound 273]
pIC50 (PI3K γ): > 7.00 | pIC50 (PI3K α): > 5.00 | pIC50 (PI3K β): > 7.00 | pIC50 (PI3K δ): > 7.00

CCc1ccccc1-n1c(Cn2nc(-c3cn[nH]c3)c3c(N)ncnc32)cc2cccc(C)c2c1=O [Compound 190]
pIC50 (PI3K γ): > 7.00 | pIC50 (PI3K α): > 5.00 | pIC50 (PI3K β): > 5.00 | pIC50 (PI3K δ): > 7.00

CCc1ccccc1-n1c(Cn2nc(-c3cc(O)cc(F)c3)c3c(N)ncnc32)cc2cccc(C)c2c1=O [Compound 89]
pIC50 (PI3K γ): > 7.00 | pIC50 (PI3K α): > 5.00 | pIC50 (PI3K β): > 6.00 | pIC50 (PI3K δ): > 7.00

Cc1cccc2cc([C@H](C)Nc3nc(N)ncc3F)n(-c3ccccc3)c(=O)c12 [Compound 271]
pIC50 (PI3K γ): > 6.00 | pIC50 (PI3K α): < 5.00 | pIC50 (PI3K β): < 5.00 | pIC50 (PI3K δ): > 7.00

Cc1ccccc1-n1c(Cn2nc(CCC(=O)N3CCOCC3)c3c(N)ncnc32)cc2cccc(C)c2c1=O [Compound 193]
pIC50 (PI3K γ): < 5.00 | pIC50 (PI3K α): < 5.00 | pIC50 (PI3K β): < 5.00 | pIC50 (PI3K δ): > 5.00

Cc1cccc2cc(Cn3nc(C#C[C@@H](C)O)c4c(N)ncnc43)n(-c3ccccc3F)c(=O)c12 [Compound 28]
pIC50 (PI3K γ): > 6.00 | pIC50 (PI3K α): < 5.00 | pIC50 (PI3K β): < 5.00 | pIC50 (PI3K δ): > 7.00

Cc1cccnc1-n1c(Cn2nc(-c3ccc4oc(N)nc4c3)c3c(N)ncnc32)cc2cccc(C)c2c1=O [Compound 240]
pIC50 (PI3K γ): > 7.00 | pIC50 (PI3K α): > 5.00 | pIC50 (PI3K β): > 5.00 | pIC50 (PI3K δ): > 7.00

Cc1ccccc1-n1c(C(C)Nc2ncnc3[nH]cnc23)cc2cccc(C)c2c1=O (stereo not shown) [Compound 191]
pIC50 (PI3K γ): > 7.00 | pIC50 (PI3K α): < 5.00 | pIC50 (PI3K β): > 5.00 | pIC50 (PI3K δ): > 7.00

Cc1ccccc1-n1c(Cn2nc(-c3cnn(C)c3)c3c(N)ncnc32)cc2cccc(C)c2c1=O [Compound 165]
pIC50 (PI3K γ): > 6.00 | pIC50 (PI3K α): < 5.00 | pIC50 (PI3K β): < 5.00 | pIC50 (PI3K δ): > 5.00

Cc1cccc2cc(Cn3nc(C#C[C@@H](C)O)c4c(N)ncnc43)n(C(C)C)c(=O)c12 [Compound 61]
pIC50 (PI3K γ): > 5.00 | pIC50 (PI3K α): < 5.00 | pIC50 (PI3K β): > 5.00 | pIC50 (PI3K δ): > 7.00

Cc1cccc2cc(Cn3nc(-c4ccc(F)c(O)c4)c4c(N)ncnc43)n(-c3ccccc3F)c(=O)c12 [Compound 9]
pIC50 (PI3K γ): > 6.00 | pIC50 (PI3K α): < 5.00 | pIC50 (PI3K β): < 5.00 | pIC50 (PI3K δ): > 7.00

Cc1cccc2cc([C@H](C)Nc3ncnc4[nH]c(Cl)nc34)n(-c3ccccc3)c(=O)c12 [Compound 261]
pIC50 (PI3K γ): > 5.00 | pIC50 (PI3K α): < 5.00 | pIC50 (PI3K β): < 5.00 | pIC50 (PI3K δ): < 5.00

Cc1cccc2cc([C@H](C)Nc3ncnc4[nH]cc(F)c34)n(C3CC3)c(=O)c12 [Compound 278]
pIC50 (PI3K γ): > 7.00 | pIC50 (PI3K α): > 6.00 | pIC50 (PI3K β): > 7.00 | pIC50 (PI3K δ): > 7.00

Cc1ccccc1-n1c(Cn2nc(C(=O)NO)c3c(N)ncnc32)cc2cccc(C)c2c1=O [Compound 300]
pIC50 (PI3K γ): > 6.00 | pIC50 (PI3K α): < 5.00 | pIC50 (PI3K β): > 5.00 | pIC50 (PI3K δ): > 6.00

Cc1cccc2cc(Cn3nc(-c4cc(O)cc(F)c4)c4c(N)ncnc43)n(-c3ccccc3)c(=O)c12 [Compound 147]
pIC50 (PI3K γ): > 7.00 | pIC50 (PI3K α): > 6.00 | pIC50 (PI3K β): > 5.00 | pIC50 (PI3K δ): > 7.00
